Experimental data taken from ChEMBL document CHEMBL1201862, “PubChem BioAssay data set” (2004).
Activity calls are given as the source filed them.

Key:
[1] = antiviral protection against BTV-induced cell death – arbovirus, BSR cells, confirmation (AID 1250); type: functional;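 further: protection from viral cytopathic effect measured as cell viability by ATP luminescence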
[2] = A High Throughput Confirmatory Assay used to Identify Novel Compounds that Inhibit Mycobacterium Tuberculosis in the absence of Glycerol.; type: functional
Fatty acid synthase [3] = molecular target: T1, Fatty acid synthase (Homo sapiens, UniProt P49327); experiment: inhibition of human FAS-TE enzyme activity – biochemical, endpoint fluorescence intensity, uHTS hits, dose response (AID 624327); type: functional;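 further: fluorescence from hydrolysis of an O-methyl fluorescein acyl ester substrate by the enzyme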
T1 sequence (P49327 whole entry): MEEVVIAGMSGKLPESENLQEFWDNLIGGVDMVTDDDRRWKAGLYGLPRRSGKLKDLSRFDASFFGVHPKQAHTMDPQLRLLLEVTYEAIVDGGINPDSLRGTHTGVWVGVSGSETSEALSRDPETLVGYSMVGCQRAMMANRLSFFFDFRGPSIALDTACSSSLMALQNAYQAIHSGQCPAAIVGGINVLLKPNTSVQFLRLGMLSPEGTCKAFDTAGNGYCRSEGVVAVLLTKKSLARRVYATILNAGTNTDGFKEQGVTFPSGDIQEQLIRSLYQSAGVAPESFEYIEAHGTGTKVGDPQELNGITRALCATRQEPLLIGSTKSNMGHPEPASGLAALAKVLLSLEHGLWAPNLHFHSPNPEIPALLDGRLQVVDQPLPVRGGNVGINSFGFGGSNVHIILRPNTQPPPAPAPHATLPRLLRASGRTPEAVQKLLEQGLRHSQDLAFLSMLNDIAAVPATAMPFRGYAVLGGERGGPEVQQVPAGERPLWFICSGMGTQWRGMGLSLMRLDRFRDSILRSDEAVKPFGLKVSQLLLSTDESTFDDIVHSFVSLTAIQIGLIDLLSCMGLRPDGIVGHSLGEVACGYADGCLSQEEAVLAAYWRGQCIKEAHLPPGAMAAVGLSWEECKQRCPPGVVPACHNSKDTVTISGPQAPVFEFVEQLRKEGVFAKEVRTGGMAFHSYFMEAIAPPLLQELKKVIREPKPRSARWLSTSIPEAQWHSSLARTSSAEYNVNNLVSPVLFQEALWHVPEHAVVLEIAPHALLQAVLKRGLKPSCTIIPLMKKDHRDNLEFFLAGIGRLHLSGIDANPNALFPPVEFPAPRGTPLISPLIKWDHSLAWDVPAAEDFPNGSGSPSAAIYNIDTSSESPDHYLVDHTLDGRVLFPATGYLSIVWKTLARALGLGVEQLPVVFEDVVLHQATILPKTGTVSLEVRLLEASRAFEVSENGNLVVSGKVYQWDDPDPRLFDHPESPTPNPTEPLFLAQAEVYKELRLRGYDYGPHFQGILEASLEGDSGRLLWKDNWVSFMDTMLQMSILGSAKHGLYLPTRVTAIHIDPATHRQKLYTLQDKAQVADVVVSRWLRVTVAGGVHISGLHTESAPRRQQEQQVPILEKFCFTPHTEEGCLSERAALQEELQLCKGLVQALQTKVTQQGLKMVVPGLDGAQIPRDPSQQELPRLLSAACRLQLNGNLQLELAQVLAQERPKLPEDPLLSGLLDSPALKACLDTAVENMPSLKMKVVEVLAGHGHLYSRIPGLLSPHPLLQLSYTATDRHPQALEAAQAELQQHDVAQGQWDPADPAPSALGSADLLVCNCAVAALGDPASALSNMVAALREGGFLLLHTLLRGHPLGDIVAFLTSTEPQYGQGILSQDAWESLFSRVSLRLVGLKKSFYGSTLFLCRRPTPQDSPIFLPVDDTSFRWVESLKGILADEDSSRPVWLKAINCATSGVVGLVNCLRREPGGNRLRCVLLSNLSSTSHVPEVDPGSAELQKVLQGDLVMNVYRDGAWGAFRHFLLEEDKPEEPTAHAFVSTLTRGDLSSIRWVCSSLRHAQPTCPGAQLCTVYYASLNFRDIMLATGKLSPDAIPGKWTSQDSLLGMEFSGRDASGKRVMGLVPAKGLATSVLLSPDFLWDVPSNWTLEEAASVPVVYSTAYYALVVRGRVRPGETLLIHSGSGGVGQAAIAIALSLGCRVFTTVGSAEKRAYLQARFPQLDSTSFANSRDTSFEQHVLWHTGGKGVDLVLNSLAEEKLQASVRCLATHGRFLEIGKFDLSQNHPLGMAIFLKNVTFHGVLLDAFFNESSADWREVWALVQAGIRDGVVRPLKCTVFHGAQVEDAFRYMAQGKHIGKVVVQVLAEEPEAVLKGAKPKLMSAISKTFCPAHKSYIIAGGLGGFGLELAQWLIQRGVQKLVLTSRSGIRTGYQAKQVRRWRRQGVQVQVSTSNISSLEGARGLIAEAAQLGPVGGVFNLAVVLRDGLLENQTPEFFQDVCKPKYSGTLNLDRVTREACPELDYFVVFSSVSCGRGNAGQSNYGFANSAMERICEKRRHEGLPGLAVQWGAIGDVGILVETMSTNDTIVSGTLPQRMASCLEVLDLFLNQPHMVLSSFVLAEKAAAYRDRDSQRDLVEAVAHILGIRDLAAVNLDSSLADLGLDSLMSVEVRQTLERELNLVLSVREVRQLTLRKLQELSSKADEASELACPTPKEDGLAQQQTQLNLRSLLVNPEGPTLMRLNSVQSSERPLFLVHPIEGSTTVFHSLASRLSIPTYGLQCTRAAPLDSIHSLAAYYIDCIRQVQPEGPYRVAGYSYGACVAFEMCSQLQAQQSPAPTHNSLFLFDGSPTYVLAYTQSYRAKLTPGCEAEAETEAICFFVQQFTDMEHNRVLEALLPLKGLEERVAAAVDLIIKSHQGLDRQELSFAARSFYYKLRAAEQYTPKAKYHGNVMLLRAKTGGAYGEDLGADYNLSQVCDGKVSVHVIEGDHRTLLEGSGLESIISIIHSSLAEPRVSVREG

[4] = microbe, parasite or virus in culture; type: functional; conditions: Mycobacterium tuberculosis
Fatty acid synthase [5] = molecular target: T1, Fatty acid synthase; experiment: inhibition of human FAS-TE enzyme activity – biochemical, kinetic fluorescence intensity, dose response (AID 624326); type: functional;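 further: rate of fluorescence rise from hydrolysis of a fluorogenic O-methyl fluorescein ester substrate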
[6] = molecular target: Melanin-concentrating hormone receptor 1 (Homo sapiens, UniProt Q99705); experiment: Fluorescence-based counterscreen for antagonists of the G-protein coupled receptor 7 (GPR7): cell-based high throughput dose response assay to identify antagonists of the melanin-concentrating hormone receptor 1 (MCHR1).; type: functional
Sequence of Melanin-concentrating hormone receptor 1 (Q99705 whole entry): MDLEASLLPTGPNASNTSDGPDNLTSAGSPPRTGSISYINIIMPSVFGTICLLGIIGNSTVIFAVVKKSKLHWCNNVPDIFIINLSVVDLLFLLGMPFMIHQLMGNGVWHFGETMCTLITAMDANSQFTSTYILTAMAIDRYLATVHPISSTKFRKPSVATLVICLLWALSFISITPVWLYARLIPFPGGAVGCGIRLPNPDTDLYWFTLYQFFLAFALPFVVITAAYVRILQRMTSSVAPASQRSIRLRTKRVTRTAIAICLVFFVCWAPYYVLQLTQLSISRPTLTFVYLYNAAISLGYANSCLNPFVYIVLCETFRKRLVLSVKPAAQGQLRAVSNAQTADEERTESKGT

HeLa = experiment: viability loss in HeLa cells – cell-based, 24 h, cherry-picked samples, cytotoxicity control, dose response (AID 504726); type: functional; conditions: Homo sapiens;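 further: potency for cytotoxicity as loss of luminescence signal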
[7] = Trypanosoma cruzi growth suppression in host cells – NIH3T3 host cells, beta-gal luminescence, confirmation (AID 2044); type: functional, cell-based;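 further: intracellular parasites grown in NIH/3T3 mouse fibroblasts as host cells; luminescent beta-galactosidase reporter signal from transgenic T. cruzi replicating inside host cells; inhibitors lower the luminescence signal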
[8] = NIH3T3 cell viability loss – ATP luminescence, mouse fibroblasts, counter-screen, dose response (AID 2010); type: functional, cell-based;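 further: cells exposed to compound for about 90 hours before reading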
Bcl-2-related protein A1 [9] = molecular target: T2, Bcl-2-related protein A1 (Mus musculus, UniProt Q07440); experiment: Bfl-1 binding inhibitors, SAR follow-up, biochemical, fluorescence polarization (AID 1070)
T2 sequence (Q07440 whole entry): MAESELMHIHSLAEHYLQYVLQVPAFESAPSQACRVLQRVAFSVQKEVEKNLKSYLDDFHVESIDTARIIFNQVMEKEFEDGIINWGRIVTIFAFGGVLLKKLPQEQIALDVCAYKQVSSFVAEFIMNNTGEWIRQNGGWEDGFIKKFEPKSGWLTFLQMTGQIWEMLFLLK

Bcl-2-related protein A1 [10] = molecular target: T2, Bcl-2-related protein A1; experiment: small-molecule antagonists of Bfl-1/BH3 interaction – biochemical, TR-FRET, mouse Bfl-1, confirmation (AID 621);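 further: TR-FRET binding of GST-Bfl-1 to FITC-labelled Bid peptide via terbium antibody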
[11] = molecular target: Neuropeptide Y receptor type 1 (Homo sapiens, UniProt P25929); experiment: Fluorescence-based counterscreen for agonists of NPY-Y2: cell-based high-throughput dose response assay for agonists of NPY-Y1.; type: functional
Sequence of Neuropeptide Y receptor type 1 (P25929 whole entry): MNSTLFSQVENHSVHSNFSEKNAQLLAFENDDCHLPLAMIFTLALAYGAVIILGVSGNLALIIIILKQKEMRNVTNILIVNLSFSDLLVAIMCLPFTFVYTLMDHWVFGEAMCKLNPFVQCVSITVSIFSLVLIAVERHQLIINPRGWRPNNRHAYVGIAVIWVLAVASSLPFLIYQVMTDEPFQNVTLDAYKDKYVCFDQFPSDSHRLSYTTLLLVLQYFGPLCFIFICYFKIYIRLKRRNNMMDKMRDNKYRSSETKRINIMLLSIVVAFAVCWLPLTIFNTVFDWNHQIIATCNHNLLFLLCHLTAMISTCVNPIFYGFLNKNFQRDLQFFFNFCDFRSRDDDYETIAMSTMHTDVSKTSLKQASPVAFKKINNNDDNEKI

[12] = molecular target: Neuropeptide Y receptor type 2 (Homo sapiens, UniProt P49146); experiment: Fluorescence-based cell-based high-throughput dose response assay for agonists of NPY-Y2. [Related pubchem assays: 1703 (Screening assay (CNGC inhibitors).), 1359 (Screening assay (NPY-Y2 potentiators or agonists).), 1304 (Screening assay (NPY-Y1 potentiators or agonists).), 1710 (Screening assay (NPY-Y2 agonists).), 1791 (Summary AID.)]; type: functional
Sequence of Neuropeptide Y receptor type 2 (P49146 whole entry): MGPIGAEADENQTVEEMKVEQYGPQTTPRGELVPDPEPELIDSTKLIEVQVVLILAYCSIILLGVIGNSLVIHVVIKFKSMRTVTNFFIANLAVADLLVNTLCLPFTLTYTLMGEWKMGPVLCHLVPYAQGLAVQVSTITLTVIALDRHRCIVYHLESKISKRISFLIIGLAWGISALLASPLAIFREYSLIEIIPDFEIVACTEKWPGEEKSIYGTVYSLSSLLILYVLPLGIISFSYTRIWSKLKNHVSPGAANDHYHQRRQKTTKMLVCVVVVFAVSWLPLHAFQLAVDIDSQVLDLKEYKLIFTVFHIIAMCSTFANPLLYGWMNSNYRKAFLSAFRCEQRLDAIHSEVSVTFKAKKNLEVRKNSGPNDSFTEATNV

HEK293 = experiment: Fluorescence-based counterscreen for potentiators or agonists of NPY-Y2: cell-based high-throughput dose response assay to identify inhibitors of cyclic nucleotide gated ion channel (CNGC) activity. In this assay, the parental HEK293 cell line transfected with a cyclic-nucleotide gated ion channel (CNGC)-based cAMP sensor is used to measure inhibition of isoproterenol-induced CNGC activity by test compound.; type: functional; conditions: Homo sapiens
Vero = experiment: viability of Vero cells under compound – cytotoxicity control for flavivirus capping enzyme inhibitors (AID 588742); type: functional; conditions: Chlorocebus sabaeus
[13] = molecular target: Peroxisome proliferator-activated receptor gamma/Nuclear receptor corepressor 2 (Homo sapiens, UniProt P37231+Q9Y618); type: functional
[14] = molecular target: Photoreceptor-specific nuclear receptor (Homo sapiens, UniProt Q9Y5X4); type: functional;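 further: potency for compounds that break the NR2E3 corepressor complex and count as activators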
Sequence of Photoreceptor-specific nuclear receptor (Q9Y5X4 whole entry): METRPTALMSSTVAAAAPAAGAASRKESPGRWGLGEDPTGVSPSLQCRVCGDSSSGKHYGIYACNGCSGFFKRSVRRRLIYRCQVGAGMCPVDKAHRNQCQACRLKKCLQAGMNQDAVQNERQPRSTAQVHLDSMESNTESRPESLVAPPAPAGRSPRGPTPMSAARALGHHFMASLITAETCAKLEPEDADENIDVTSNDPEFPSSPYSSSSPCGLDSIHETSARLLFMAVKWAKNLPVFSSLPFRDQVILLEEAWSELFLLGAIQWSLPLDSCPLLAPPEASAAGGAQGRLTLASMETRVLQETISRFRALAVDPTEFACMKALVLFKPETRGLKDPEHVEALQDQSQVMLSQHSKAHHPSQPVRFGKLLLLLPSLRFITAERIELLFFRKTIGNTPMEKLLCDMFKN

[15] = molecular target: Lysosomal acid glucosylceramidase (Homo sapiens, UniProt P04062); experiment: Dose response cell-based high throughput screening assay to identify enhancers of beta-glucosidase activity. [Related pubchem assays: 784 ]; type: functional
Sequence of Lysosomal acid glucosylceramidase (P04062 whole entry): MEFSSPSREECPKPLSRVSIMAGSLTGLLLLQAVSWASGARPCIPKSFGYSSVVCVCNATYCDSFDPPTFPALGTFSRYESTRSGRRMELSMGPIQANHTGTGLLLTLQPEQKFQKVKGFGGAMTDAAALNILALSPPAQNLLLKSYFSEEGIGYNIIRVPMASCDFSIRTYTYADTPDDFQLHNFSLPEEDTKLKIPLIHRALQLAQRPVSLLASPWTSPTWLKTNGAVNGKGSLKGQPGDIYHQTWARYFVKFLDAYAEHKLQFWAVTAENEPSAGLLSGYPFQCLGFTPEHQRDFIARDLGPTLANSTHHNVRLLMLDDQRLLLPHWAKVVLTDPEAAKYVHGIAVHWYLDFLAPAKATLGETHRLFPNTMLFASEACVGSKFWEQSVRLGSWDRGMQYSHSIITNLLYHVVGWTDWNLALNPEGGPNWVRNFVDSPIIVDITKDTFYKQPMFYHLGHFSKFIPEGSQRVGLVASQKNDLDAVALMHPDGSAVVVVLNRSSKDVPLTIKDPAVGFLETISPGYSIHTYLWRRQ

[16] = molecular target: Serine/threonine-protein phosphatase PP1-alpha catalytic subunit (Homo sapiens, UniProt P62136); experiment: inhibition of protein phosphatase 1 activity – biochemical, fluorescence, dose response (AID 2394)
[17] = molecular target: Serine/threonine-protein phosphatase (Homo sapiens, UniProt Q9BPW0); experiment: inhibition of protein phosphatase 5 activity – biochemical, fluorescence, dose response (AID 2395)
Sequence of Serine/threonine-protein phosphatase (Q9BPW0 whole entry): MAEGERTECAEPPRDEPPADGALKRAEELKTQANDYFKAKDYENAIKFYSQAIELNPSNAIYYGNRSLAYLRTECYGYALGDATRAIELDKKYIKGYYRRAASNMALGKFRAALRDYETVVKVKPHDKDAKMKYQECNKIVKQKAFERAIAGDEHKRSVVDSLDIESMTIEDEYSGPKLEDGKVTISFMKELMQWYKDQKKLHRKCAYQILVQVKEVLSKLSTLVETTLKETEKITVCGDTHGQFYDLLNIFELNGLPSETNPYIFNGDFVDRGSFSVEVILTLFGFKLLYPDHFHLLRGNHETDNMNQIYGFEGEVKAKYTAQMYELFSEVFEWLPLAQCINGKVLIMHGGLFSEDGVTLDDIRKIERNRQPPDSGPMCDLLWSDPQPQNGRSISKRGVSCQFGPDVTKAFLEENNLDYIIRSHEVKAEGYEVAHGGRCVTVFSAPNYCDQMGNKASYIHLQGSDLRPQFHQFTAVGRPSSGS

## CCOC(=O)c1cc2c(N)c(C(=O)c3ccc(Br)cc3)sc2nc1O
[1]
  IC50: 34 µM (active)

## Fc1nc(F)c(F)c(NCCCNc2c(F)c(F)nc(F)c2F)c1F
[2]
  IC50: > 100 µM (active)
Fatty acid synthase [3]
  IC50: 26 µM (inactive)
[4]
  CC50: 24 µM (active)
Fatty acid synthase [5]
  IC50: 7.19 µM (active)

## COc1ccnc(Oc2ccc(F)cc2)c1C(=O)N=CNOCc1ccc(F)cc1
[6]
  IC50: 30.3 µM (not active)

## Cc1cccc(Nc2nc(N)c([N+](=O)[O-])c(NCc3ccccc3)n2)c1
HeLa
  AC50: 25 µM (active)

## CCN(CC(=O)NCc1cccs1)C(=O)c1ccc([N+](=O)[O-])o1
cells
  EC50: 0.047 µM (active)
[7]
  EC50: < 0.1 µM (active)
[8]
  EC50: > 30 µM (not active)

## COc1ncccc1-c1nnn(-c2ccc(Cl)c(Cl)c2)n1
Bcl-2-related protein A1 [9]
  IC50: > 100 µM (not active)
Bcl-2-related protein A1 [10]
  IC50: > 100 µM (not active)

## O=S(=O)(c1cccc(NC(=S)N2CCN(c3cccc(Cl)c3)CC2)c1)C(F)F
[11]
  EC50: > 35.4 µM (not active)
[12]
  EC50: > 35.4 µM (not active)
HEK293
  EC50: > 35.4 µM (not active)
Vero
  CC50: > 40 µM (active)

## O=C(O)C1CCN(c2nc(-c3ccccc3)c3cc(Br)ccc3n2)CC1
[13]
  IC50: 2.33 µM (active)
[14]
  IC50: > 39.8 µM (not active)

## O=C(NCCCN1CCCC1=O)c1ccc2c(=O)n(Cc3ccco3)c(=S)[nH]c2c1
[15]
  EC50: > 50 µM (not active)

## Cc1nnc(NC(=O)C2C3C=CC(O3)C2C(=O)O)s1 (stereo unspecified)
[16]
  IC50: > 67 µM (not active)
[17]
  IC50: > 67 µM (not active)
